According to paper PMC7321108, “1-Hydroxyanthraquinones Containing Aryl Substituents as Potent and Selective Anticancer Agents” (Molecules, 2020):
Read-outs that look alike come from different tables or passages of the source.

Columns and labels:
[1] = test system: SNB-19 glioblastoma cells; assay: MTT cytotoxicity assay, SNB-19; assay type: cell-based; conditions: Homo sapiens, 72 h incubation, mean ± SEM of three experiments, read-out: Cytotoxicity (GI50) against SNB-19
Procedure: (§1) The cytotoxicity of the synthesized series of 4-substituted 5, 13–17, 22, 23, 2-substituted 25–30 and 2,4-disubstituted 1-hydroxy-9,10-anthraquinones 33–38, 40–45 was evaluated against a panel of seven different human cancer cell lines (glioblastoma cancer cells, human prostate cancer cells, T-cellular human leucosis, breast cancer cells) and also a normal cell line of hTERT-immortalized lung fibroblasts, using conventional MTT assay. Doxorubicin (DOX) is clinically used to treat cancer as drug in world and have a very wide antitumor spectrum. That we use them as positive control compounds. The cytotoxicity was determined by measuring the concentration inhibiting human tumor cell viability by 50% (GI50).
(§2) The human cancer cells of the glioblastoma (U-87MG, SNB-19, T98G), prostate cancer cell line (LNCAP, DU-145), the cells of T-cellular human leucosis (MT-4) and human breast cancer cells (MDA-MB-231) were used in this study. The cells were cultured in the RPMI-1640 medium that contained 10% embryonic calf serum, L-glutamine (2 mmol/L), gentamicin ([…]) and lincomycin (30 mkg/mL) in a CO2 incubator at 37 °C. The tested compounds were dissolved in DMSO and added to the cellular culture at the required concentrations. Three wells were used for each concentration. The cells which were incubated without the compounds were used as a control. Cells were placed on 96-well microliter plates and cultivated at 37 °C in 5% CO2/95% air for 72 h. The cell viability was assessed through an MTT [3-(4,5-dimethylthiazol-2-yl)-[…]-2H-tetrazolium bromide] conversion assay. A total of 1% MTT was added to each well. Four hours later, DMSO was added and mixed for 15 min. Optical density (D) of the samples was measured on a BioRad 680 multi-well spectrophotometer (USA) at the wavelength of 450 nm. The 50% cytotoxic dose GI50) of each compound (i.e., the compound concentration that causes the death of 50% of cells in a culture, or decreases the optical density twice as compared to the control wells) was calculated from the data obtained. Statistical processing of the results was performed using the Microsoft Excel-2007, […] 6.0 and GraphPad Prism 5.0 programs. The results are given as an average value ± a deviation from the average (mean ± standard error of the mean (SEM)). Reliability of differences (p) was estimated using the Student t test. The differences with p < 0.05 were considered as reliable. The experimental results are given as the data average values obtained from three independently conducted experiments.

[2] = test system: U-87MG glioblastoma cells; assay: MTT cytotoxicity assay, U-87MG; assay type: cell-based; conditions: Homo sapiens, 72 h incubation, mean ± SEM of three experiments, read-out: Cytotoxicity (GI50) against U-87MG
Procedure: as §1, §2

T98G glioblastoma cells = assay: MTT cytotoxicity assay, T98G; assay type: cell-based; conditions: Homo sapiens, 72 h incubation, mean ± SEM of three experiments, read-out: Cytotoxicity (GI50) against T98G
Procedure: as §1, §2

[3] = test system: LNCAP prostate cancer cells; assay: MTT cytotoxicity assay, LNCAP; assay type: cell-based, human; conditions: 72 h incubation, mean ± SEM of three experiments, read-out: Cytotoxicity (GI50) against LNCAP
Procedure: as §1, §2

[4] = test system: DU-145 prostate cancer cells; assay: MTT cytotoxicity assay, DU-145; assay type: cell-based, human; conditions: Homo sapiens, DU-145, 72 h, 72 h incubation, mean ± SEM of three experiments, read-out: Cytotoxicity (GI50) against DU-145
Procedure: as §1, §2

[5] = test system: MT-4 cells of T-cellular human leucosis; assay: MTT cytotoxicity assay, MT-4; assay type: cell-based; conditions: MT4, 72 h incubation, mean ± SEM of three experiments, read-out: Cytotoxicity (GI50) against MT-4
Procedure: as §1, §2

[6] = test system: MDA-MB-231 breast cancer cells; assay: MTT cytotoxicity assay, MDA-MB-231; assay type: cell-based; conditions: Homo sapiens, 72 h incubation, mean ± SEM of three experiments, read-out: Cytotoxicity (GI50) against MDA-MB-231
Procedure: as §1, §2

[7] = MTT cytotoxicity assay, normal hTERT-immortalized lung fibroblasts; assay type: cell-based; conditions: human, hTERT-immortalized lung fibroblasts (normal cell line), 72 h incubation, mean ± SEM of three experiments, read-out: Cytotoxicity (GI50) against hTERT Lung Fibroblasts
Procedure: as §1, §2

Compound | GI50 [1] | GI50 [2] | GI50 (T98G glioblastoma cells) | GI50 ([3]; Homo sapiens, LNCaP, 72 h) | GI50 [4] | GI50 [5] | GI50 [6] | GI50 at 72 h [7] | melting point | GI50 [3]
COc1cc(-c2cc(Br)c3c(c2O)C(=O)c2ccccc2C3=O)cc(OC)c1OC [Compound 42, 4-Bromo-1-hydroxy-2-(3,4,5-trimethoxyphenyl)anthracene-9,10-dione] | 31.6 ± 2.16 µM | > 100 µM | 11.5 ± 1.34 µM | 71.8 ± 9.76 µM | 23.9 ± 4.28 µM | > 100 µM | 21.1 ± 3.28 µM | 18.2 ± 2.19 µM | 217.4 °C (dec.) | –
O=C1c2ccccc2C(=O)c2c(O)c(-c3ccc(Cl)cc3C(F)(F)F)cc(-c3ccc(Cl)cc3C(F)(F)F)c21 [Compound 39, 2,4-Di-(4-Chloro-2-(trifluoromethyl)phenyl)-1-hydroxyanthracene-9,10-dione] | – | – | – | – | – | – | – | – | 150 to 152 °C | –
Cc1ccccc1-c1cc(-c2ccccc2C)c2c(c1O)C(=O)c1ccccc1C2=O [Compound 34, 1-Hydroxy-2,4-di-o-tolylanthracene-9,10-dione] | > 100 µM | > 100 µM | > 100 µM | > 100 µM | > 100 µM | > 100 µM | > 100 µM | 72.2 ± 4.18 µM | 119.8 °C (dec.) | –
Cc1ccccc1-c1ccc(O)c2c1C(=O)c1ccccc1C2=O [Compound 14, 1-Hydroxy-4-(o-tolyl)anthracene-9,10-dione] | 38.1 ± 1.15 µM | > 100 µM | > 100 µM | 92 ± 3.93 µM | 41.1 ± 3.34 µM | 65 ± 5.49 µM | > 100 µM | > 100 µM | – | –
O=C1c2ccccc2C(=O)c2c(O)c(-c3cc(C(F)(F)F)ccc3Cl)cc(-c3cc(C(F)(F)F)ccc3Cl)c21 [Compound 38, 2,4-Di-(2-chloro-5-(trifluoromethyl)phenyl)-1-hydroxyanthracene-9,10-dione] | 39.4 ± 2.16 µM | > 100 µM | 7.8 ± 0.56 µM | > 100 µM | 6.5 ± 0.89 µM | > 100 µM | 32.5 ± 5.37 µM | 19.4 ± 0.97 µM | – | –
COc1ccc(-c2cc(Br)c(O)c3c2C(=O)c2ccccc2C3=O)cc1 [Compound 41, 2-Bromo-1-hydroxy-4-(4-methoxyphenyl)anthracene-9,10-dione] | 14.1 ± 3.15 µM | 44.5 ± 1.56 µM | 29.7 ± 2.05 µM | 41.1 ± 5.15 µM | > 100 µM | 44.1 ± 3.23 µM | 15.8 ± 0.82 µM | 17.2 ± 0.62 µM | 241.3 °C (dec.) | –
O=C1c2ccccc2C(=O)c2c(O)c(-c3ccccc3)cc(-c3ccccc3)c21 [Compound 33, 1-Hydroxy-2,4-diphenylanthracene-9,10-dione] | 18.3 ± 1.12 µM | 56.8 ± 2.36 µM | 24.6 ± 0.85 µM | 21.3 ± 1.16 µM | > 100 µM | > 100 µM | 28.3 ± 1.06 µM | 52.8 ± 8.05 µM | 225 to 228 °C | –
COc1cc(-c2cc(-c3ccccc3)c3c(c2O)C(=O)c2ccccc2C3=O)cc(OC)c1OC [Compound 43, 1-Hydroxy-4-phenyl-2-(3,4,5-trimethoxyphenyl)anthracene-9,10-dione] | 19.2 ± 2.52 µM | > 100 µM | 16.1 ± 0.78 µM | > 100 µM | 18.6 ± 2.45 µM | > 100 µM | 17.1 ± 1.55 µM | 34.1 ± 0.92 µM | 60.4 °C (dec.) | –
COc1cccc(-c2cc(-c3cccc(OC)c3OC)c3c(c2O)C(=O)c2ccccc2C3=O)c1OC [Compound 36, 2,4-Di-(2,3-dimethoxyphenyl)-1-hydroxyanthracene-9,10-dione] | 37 ± 1.41 µM | 36.8 ± 1.42 µM | 15.5 ± 0.92 µM | 16.7 ± 1.86 µM | 10.6 ± 1.12 µM | 25.8 ± 0.94 µM | 22.6 ± 0.86 µM | 12.2 ± 2.08 µM | 192.9 °C (dec.) | –
COc1cc(-c2cc(-c3ccc(Cl)cc3C(F)(F)F)c3c(c2O)C(=O)c2ccccc2C3=O)cc(OC)c1OC [Compound 45, 4-(4-Chloro-2-(trifluoromethyl)phenyl)-1-hydroxy-2-(3,4,5-trimethoxyphenyl)-anthracene-9,10-dione] | 11.2 ± 1.49 µM | 18.2 ± 1.06 µM | 28.3 ± 3.25 µM | 6.2 to 7.2 µM | 22.6 ± 0.91 µM | 31.5 ± 1.52 µM | 14.2 ± 1.42 µM | 20.5 ± 2.68 µM | 226.8 °C (dec.) | 7.2 ± 0.74 µM
O=C1c2ccccc2C(=O)c2c1ccc(-c1cc(F)cc(F)c1)c2O [Compound 29, 2-(3,5-Difluorophenyl)-1-hydroxyanthracene-9,10-dione] | 15.3 ± 0.71 µM | 34.1 ± 2.18 µM | 29.6 ± 2.21 µM | 36.2 ± 2.05 µM | 13.8 ± 1.05 µM | 36.6 ± 1.68 µM | 35.2 ± 1.88 µM | 28.1 ± 2.12 µM | 264.3 °C (dec.) | –
COc1cc(-c2ccc(O)c3c2C(=O)c2ccccc2C3=O)cc(OC)c1OC [Compound 5, 1-Hydroxy-4-(3,4,5-trimethoxyphenyl)anthracene-9,10-dione] | 6.7 ± 0.47 µM | > 100 µM | 72.5 ± 3.21 µM | 21.1 ± 0.85 µM | 14.8 ± 0.52 µM | 42 ± 4.14 µM | 28.6 ± 1.24 µM | 28.6 ± 4.54 µM | 230.5 °C (dec.) | –
O=C1c2ccccc2C(=O)c2c(-c3cc(C(F)(F)F)ccc3Cl)ccc(O)c21 [Compound 18, 1-(2-Chloro-5-(trifluoromethyl)phenyl)-4-hydroxyanthracene-9,10-dione] | – | – | – | – | – | – | – | – | 184.3 °C (dec.) | –
COc1ccc(-c2cc(-c3cc(OC)c(OC)c(OC)c3)c(O)c3c2C(=O)c2ccccc2C3=O)cc1 [Compound 44, 1-Hydroxy-4-(4-methoxyphenyl)-2-(3,4,5-trimethoxyphenyl)anthracene-9,10-dione] | 41.8 ± 5.27 µM | > 100 µM | 16.5 ± 1.26 µM | 14.2 ± 3.12 µM | 15.2 ± 1.06 µM | 40.5 ± 6.44 µM | 19.1 ± 0.98 µM | 36.2 ± 1.31 µM | – | –
O=C1c2ccccc2C(=O)c2c1ccc(-c1cc(C(F)(F)F)ccc1Cl)c2O [Compound 30, 2-(2-Chloro-5-(trifluoromethyl)phenyl)-1-hydroxyanthracene-9,10-dione] | 16.8 ± 2.11 µM | 21.6 ± 1.42 µM | 39.2 ± 1.65 µM | > 100 µM | 12.5 ± 3.17 µM | 55.1 ± 3.24 µM | 39.1 ± 1.71 µM | 25.6 ± 5.24 µM | 188.5 °C (dec.) | –
COc1cc(-c2ccc3c(c2O)C(=O)c2ccccc2C3=O)cc(OC)c1OC [Compound 24, 1-Hydroxy-2-(3,4,5-trimethoxyphenyl)anthracene-9,10-dione] | – | – | – | – | – | – | – | – | 190.1 °C (dec.) | –
COc1cc(-c2cc(-c3cc(OC)c(OC)c(OC)c3)c3c(c2O)C(=O)c2ccccc2C3=O)cc(OC)c1OC [Compound 32, 1-Hydroxy-2,4-di-(3,4,5-trimethoxyphenyl)anthracene-9,10-dione] | – | – | – | – | – | – | – | – | 214.9 °C (dec.) | –
O=C1c2ccccc2C(=O)c2c(-c3cc(F)cc(F)c3)ccc(O)c21 [Compound 17, 1-(3,5-Difluorophenyl)-4-hydroxyanthracene-9,10-dione] | 10.2 ± 0.86 µM | 8.2 ± 1.35 µM | 9.2 ± 0.56 µM | 16.7 ± 1.34 µM | 3.5 ± 0.96 µM | 38.3 ± 3.16 µM | 9.6 ± 0.69 µM | 26.6 ± 2.44 µM | 214.2 to 214.3 °C | –
O=C1c2ccccc2C(=O)c2c(-c3ccc(Cl)cc3C(F)(F)F)ccc(O)c21 [Compound 19, 1-(4-Chloro-2-(trifluoromethyl)phenyl)-4-hydroxyanthracene-9,10-dione] | – | – | – | – | – | – | – | – | 186 °C (dec.) | –
